Where two headings read alike, the source gives them in different places.
Assays:
[1] = Pharmacokinetic analysis of GR3027 in plasma after i.v. and p.o. administration; assay type: in vivo, rat; settings: for AUC: male Sprague-Dawley rats, 0-24 h; for Cmax / Tmax / half-life: rat plasma; for half-life: read-out: t½; for k el: in vivo
Method: Ten male Sprague-Dawley rats were used to assess PK with GR3027 given orally and intravenously, respectively. Animals were kept at room temperature with artificial light under a 12/12 h light/dark schedule, and with food and water ad libitum. Animals were given 2 mg/kg i.v. in 10% 2-hydroxypropyl-beta-cyclodextrin or 10 mg/kg orally. Approximately 50 µL blood samples were taken at 15 min, 30 min, 1 h, 2 h, 4 h, 8 h, 12 h, and 24 h after oral dosing, and 5 min, 15 min, 30 min, 1 h, 2 h, 4 h, 8 h, 12 h, and 24 h after intravenous dosing, and plasma was frozen. The analysis method has been described earlier and is here briefly described. All the samples were analyzed in triplicate by Admescope Ltd., Oulu, Finland, using an LC/MS/MS method developed for the purpose, using a Waters ACQUITY UPLC_Waters XEVO-TQS triple-quadrupole mass spectrometer.
Blood/plasma samples were obtained at several time points after the i.v. and p.o. administration of GR3027 to rats. The maximum plasma concentration (Cmax) and the time to Cmax (Tmax) were derived directly from the plasma concentration data. The results are shown in Table 4 as the area under the concentration–time curve (AUC, 0–24 h), elimination half-life in plasma (t1/2), elimination rate constant (Ke), total body clearance (CL), and mean residence time (MRT), i.e., how long GR3027 remained in the body. The tentative oral bioavailability (F) was calculated by dividing the dose-normalized AUC after p.o. administration by the dose-normalized AUC after i.v. administration, i.e., F = [(AUC(p.o.)/Dose(p.o.))///(AUC(i.v)/Dose (i.v.))], and reported as percentages (%).

male Wistar rats = assay: Morris water maze (MWM) learning and spatial memory; assay type: in vivo, rat; settings: GR3027 alone 11 mg/kg i.v.
Method: Animals: Male Wistar rats were used to study the effect of AP on learning and spatial memory (Scanbur BK, Sweden). The rats were marked on the tail with a permanent spray (Porcimark™) for identification. A 12/12 h light/dark cycle was used (lights off at 18.00 h), food and water were available ad libitum, and the housing room temperature was kept at 22–23 °C. Animal testing was performed during the light part of the day. After arrival at the animal facility, the handling of all rats was performed for two weeks, including habituation to all relevant experimental procedures. […]
Spatial memory: Spatial memory was assessed using the Morris water maze (MWM), as previously described in detail, and in brief as follows. […] MWM parameters (latency, path, swimming speed, floating, and thigmotaxis) were monitored and quantified using the computer tracking system Menu 2020 (HVS Image, UK). […]
Substances and treatments: AP (3α-OH-5α-pregnan-20-one; 2.0 mg/mL; Umecrine AB, Sweden) and GR3027 (3α-ethynyl-3β-hydroxyl-5α-androstan-17-oxime; 2.0 mg/mL; Umecrine Cognition AB, Stockholm, Sweden) were dissolved in 10% 2-hydroxypropyl-beta-cyclodextrin (β-CD; Sigma, St. Louis, MO, USA) using ultrasound. The various combination treatments were then prepared by mixing these solutions in calculated proportions (Table 1). […]

[2] = male, Sprague-Dawley, iv, 2 mg/kg i.v., mean
[3] = male, Sprague-Dawley, po, 10 mg/kg p.o., mean

With `C#C[C@]1(O)CC[C@@]2(C)[C@@H](CC[C@@H]3[C@@H]2CC[C@]2(C)/C(=N/O)CC[C@@H]32)C1` [GR3027, 3α-ethynyl-3β-hydroxyl-5α-androstan-17-oxime] the AUC ([1]; 2 mg/kg i.v., plasma, mean) was 2205586 min ∗ ng/mL, the AUC ([1]; 10 mg/kg p.o., plasma, mean) was 113568 min ∗ ng/mL and the Cmax [1, 2] was 74500 ng/mL. The Tmax [1, 2] was 0.0833 h, the half-life [1, 2] was 11.3 h and the MRT ([1]; male, Sprague-Dawley, plasma, iv, 2 mg/kg i.v., rat, mean) was 0.277 h. For the same compound, the clearance ([1]; male, Sprague-Dawley, plasma, iv, 2 mg/kg i.v., rat, mean, read-out: Cl (total body clearance)) was 1.09 mL/min/kg, the bioavailability ([1]; male, Sprague-Dawley, plasma, oral, 10 mg/kg p.o. vs 2 mg/kg i.v., dose-normalized AUC, rat, read-out: F (tentative oral bioavailability)) was 1% and the MRT ([1]; male, Sprague-Dawley, plasma, po, 10 mg/kg p.o., rat, mean) was 4.73 h. It also gave a Cmax [1, 3] of 504 ng/mL, a Tmax [1, 3] of 0.567 h and a half-life [1, 3] of 5.17 h. The k el ([1]; male, Sprague-Dawley, rat, iv, 2 mg/kg) was 2e-05 s⁻¹, the k el ([1]; male, Sprague-Dawley, rat, po, 10 mg/kg) was 4.17e-05 s⁻¹ and the “Swim speed vs groups treated with AP or AP:GR3027 combinations” value (male Wistar rats; p < 0.05) was “lower”. For the same compound, the “Swim speed vs vehicle group” value (male Wistar rats; p > 0.05) was “no different”.
